Tests used:
[1] = refractive index (Na D-line) (dimensionless); xn = mol fraction of the nth substance listed; conditions: 298.15 K, 101 kPa, Liquid, Standard Abbe refractometry
[2] = xn = mol fraction of the nth substance listed; conditions: 298.15 K, 101 kPa, Liquid; for viscosity: Capillary tube (Ostwald / Ubbelohde) method
[3] = 298.15 K; 101 kPa; Liquid
[4] = refractive index (Na D-line) (dimensionless); conditions: 298.15 K; 101.33 kPa; Liquid; Standard Abbe refractometry

CCCCCCCCl [1-chloroheptane] + CCCCOC(C)=O
Conditions	mass density, [2] [kg/m3]	refractive index, [1]	viscosity, [2] [mPa·s]
x2 = 0	872.79	1.4236	–
x2 = 0.0505	872.6	1.4219	0.828
x2 = 0.1006	872.52	1.4203	0.815
x2 = 0.1503	872.45	1.4189	0.803
x2 = 0.2014	872.41	1.4175	0.792
x2 = 0.3003	872.39	1.4147	0.77
x2 = 0.3505	872.42	1.4133	0.759
x2 = 0.4007	872.48	1.4118	0.749
x2 = 0.4503	872.56	1.4103	0.739
x2 = 0.5006	872.71	1.4087	0.729
x2 = 0.6001	873.07	1.4054	0.71
x2 = 0.65	873.32	1.4037	0.7
x2 = 0.6996	873.64	1.402	0.691
x2 = 0.7499	873.97	1.4003	0.682
x2 = 0.8001	874.32	1.3986	0.674
x2 = 0.9	875.2	1.3952	0.659

CCCCCCCCCl [1-chlorooctane] + CCCCOC(C)=O
Conditions	mass density, [2] [kg/m3]	refractive index, [1]	viscosity, [2] [mPa·s]
x2 = 0	868.71	1.4282	–
x2 = 0.0507	868.69	1.4271	1.032
x2 = 0.1002	868.7	1.4264	1.007
x2 = 0.1498	868.74	1.4256	0.981
x2 = 0.1999	868.73	1.4247	0.959
x2 = 0.3001	868.77	1.4222	0.911
x2 = 0.3496	868.82	1.4208	0.889
x2 = 0.4001	868.99	1.4192	0.867
x2 = 0.4503	869.17	1.4174	0.846
x2 = 0.5	869.45	1.4156	0.825
x2 = 0.6019	870.13	1.4114	0.784
x2 = 0.6999	871.1	1.4069	0.745
x2 = 0.7998	872.48	1.4018	0.708
x2 = 0.8999	874.25	1.3968	0.674

CCCCOC(C)=O [butyl ethanoate] + CCCCCCl
x1 = 1
Conditions	mass density [kg/m3]	refractive index
[1]	–	1.3918
[2]	876.28	–

CCCCCCCCl [1-chloroheptane]
Conditions	mass density [kg/m3]	refractive index
[3]	872.79	–
[4]	–	1.4236

CCCCCl [1-chlorobutane]
Conditions	mass density [kg/m3]	refractive index
[3]	880.87	–
[4]	–	1.3996

CCCCOC(C)=O [butyl ethanoate] + CCCCCCCCCl
x1 = 1
Conditions	mass density [kg/m3]	refractive index
[1]	–	1.3918
[2]	876.28	–

CCCCOC(C)=O [butyl ethanoate]
Conditions	mass density [kg/m3]	refractive index
[3]	876.28	–
[4]	–	1.3918

CCCCCCCl [1-chlorohexane] + CCCCOC(C)=O
Conditions	mass density, [2] [kg/m3]	refractive index, [1]	viscosity, [2] [mPa·s]
x2 = 0	873.39	1.4171	–
x2 = 0.0568	873.06	1.4159	0.662
x2 = 0.1099	872.97	1.4148	0.659
x2 = 0.1638	872.88	1.4137	0.657
x2 = 0.2188	872.81	1.4125	0.655
x2 = 0.3237	872.8	1.4102	0.652
x2 = 0.3745	872.83	1.4091	0.651
x2 = 0.4271	872.87	1.4078	0.65
x2 = 0.4773	872.98	1.4066	0.649
x2 = 0.5286	873.11	1.4053	0.648
x2 = 0.6265	873.53	1.4028	0.646
x2 = 0.6753	873.78	1.4015	0.645
x2 = 0.7232	874.04	1.4001	0.645
x2 = 0.8171	874.66	1.3973	0.645
x2 = 0.8631	875.01	1.3959	0.645

CCCCOC(C)=O [butyl ethanoate] + CCCCCCCCl
x1 = 1
Conditions	mass density [kg/m3]	refractive index
[1]	–	1.3918
[2]	876.28	–

CCCCOC(C)=O [butyl ethanoate] + CCCCCCCl
x1 = 1
Conditions	mass density [kg/m3]	refractive index
[1]	–	1.3918
[2]	876.28	–

From the NIST ThermoML archive (doi:10.1007/s10765-010-0902-x)
